The values below come from ChEMBL document CHEMBL4229475, “Synthesis of novel imidazopyridines and their biological evaluation as potent anticancer agents: A promising candidate for glioblastoma” (Bioorg Med Chem Lett, 2018).

Calls of active or inactive are those of the source. The calls are words filed in the database; no cut-off is given here.

A word on the IC50: it is the concentration that inhibits the measured activity by half.

Assay [1] has as its system LN-405. Nature of the assay: Cytotoxicity against human LN405 cells assessed as decrease in cell viability at 100 uM after 96 hrs by MTT assay. Format: functional, cell-based. (In general: Formazan colour is commonly taken as a measure of viable cells.)
Assay [2] has as its system LN-405. Nature of the assay: Cytotoxicity against human LN405 cells assessed as cell viability at 100 uM after 96 hrs by MTT assay relative to control. Format: functional. Conditions: LN-405, 96 h, read-out: Activity.
The subject of assay [3] is LN-405. Nature of the assay: Cell cycle arrest in human LN405 cells assessed as accumulation at G0/G1 phase at IC50 after 72 hrs by propidium iodide staining-based flow cytometric method relative to control. It is filed as functional. On the technique in general: In flow cytometry, cells or beads pass a laser one at a time.
For assay [4], the system named is LN-405. As to the kind of experiment: Induction of DNA damage in human LN405 cells assessed as cell with damage DNA at IC50 after 72 hrs by COMET assay (reference value: 0.7%). Format: functional.
In assay [5] the test system is LN-405. Nature of the assay: Cell cycle arrest in human LN405 cells assessed as decrease in cell levels at S phase at IC50 after 72 hrs by propidium iodide staining-based flow cytometric method. It is filed as functional.
Assay [6] in a line: Cytotoxicity against human WS1 cells assessed as decrease in cell viability after 96 hrs by MTT assay. The following applies: WS1, 96 h. It is filed as cell-based.
Assay [7] concerns LN-405. Nature of the assay: Cytotoxicity against human LN405 cells assessed as decrease in cell viability after 96 hrs by MTT assay. The following applies: LN-405, 96 h. Format: functional, cell-based.

With `CC1CCN(c2cc(-c3ccc(Br)cc3)c3nc(-c4ccc(Br)cc4)cn3c2)CC1`, the result with LN-405 [1] was inactive.
Take `COc1ccc(-c2cn3cc(N4CCC(C)CC4)cc(-c4ccc(OC)cc4)c3n2)cc1`: the viability at 100 µM in the assay on LN-405 [2] came out at 80%.
For `CC1CCN(c2cc(-c3ccccc3)c3nc(-c4ccccc4)cn3c2)CC1`, the Activity came out at 99.2% in the assay on LN-405 [3] and 14% in the assay with LN-405 [4]. In the assay with LN-405 [2], the viability at 100 µM came to 6%. Further, the outcome in the assay on LN-405 [5] was Active. Moreover, the IC50 was 480 µM in assay [6] and 10 µM in the assay with LN-405 [7].
`CC1CCN(c2cc(-c3ccc(Br)s3)c3nc(-c4ccc(Br)s4)cn3c2)CC1`: the result in the assay on LN-405 [1] was inactive.
In the case of `CC1CCN(c2cc(-c3ccc(-c4ccccc4)cc3)c3nc(-c4ccc(-c5ccccc5)cc4)cn3c2)CC1`, the outcome in the assay on LN-405 [1] was inactive.
As to `CC1CCN(c2cc(-c3ccc4ccccc4c3)c3nc(-c4ccc5ccccc5c4)cn3c2)CC1`, the outcome in the assay with LN-405 [1] was inactive.
On to `CC1CCN(c2cc(-c3cccs3)c3nc(-c4cccs4)cn3c2)CC1`, for which, in the assay with LN-405 [1], the outcome was inactive.
For `CC1CCN(c2cc(-c3ccc(F)cc3)c3nc(-c4ccc(F)cc4)cn3c2)CC1`, the results for the Activity in the assay with LN-405 [3] and in the assay on LN-405 [4] were 98.2% and 0.9%, respectively. For the same molecule, in the assay with LN-405 [2], the viability at 100 µM worked out at 32%. Moreover, in the assay with LN-405 [5], the result was Active. Further, the IC50 in assay [6] is 844 µM; in the assay on LN-405 [7], 75 µM.
